From publication PMC11420244, “Evaluation of the effect of modafinil on the pharmacokinetics of encorafenib and binimetinib in patients with BRAF V600-mutant advanced solid tumors” (Cancer Chemotherapy and Pharmacology, 2024)
Entries after “also recorded” stand apart in the source; their conditions may differ. Where two headings read alike, the source gives them in different places.

How the values were obtained:
UGT1A1 = conditions: cited from earlier work
[1] = Phase 1 clinical DDI study: steady-state plasma PK (noncompartmental analysis) with and without modafinil; assay type: in vivo, Human; conditions: for AUC(0-t) / half-life / Cmax: human
Experimental: Encorafenib 450 mg QD and binimetinib 45 mg BID were administered starting on Day 1. Patients then received continuous treatment of 400 mg QD modafinil on Day 15 through Day 21. Blood samples for measurement of plasma concentrations of encorafenib (and its metabolite, LHY746) and binimetinib (and its active metabolite, AR00426032), were collected at 0, 1, 2, 3, 4, 6 and 8 h post dose on Day 14 and Day 21.
Human PK plasma samples were analyzed for quantitation of all PK analytes at PPD (Middleton, Wisconsin, US) using validated, sensitive, and specific HPLC/MS/MS methods in compliance with laboratory SOPs.
PK parameters including, but not limited to, Cmax and AUClast were calculated for each participant using noncompartmental analysis (NCA) methods using the WinNonlin software package (Phoenix WinNonlin Professional, version 8.0 Pharsight Corporation, Mountain View, California) for PK analytes including encorafenib and its metabolite LHY746, and binimetinib and its metabolite AR00426032.
All patients who received at least one dose of any study drug were included in the Safety Set population. The Evaluable PK Set included all patients with sufficient concentration data to calculate at least one PK parameter for encorafenib and binimetinib on Days 14 and 21. Patients who discontinued, missed 3 or more consecutive doses of encorafenib prior to completion of the last PK sampling on Day 14, or required a dose reduction of encorafenib prior to completion of the last PK sampling on Day 14 were excluded from the Evaluable PK set. In addition, patients who missed any dose of study drugs on any of the PK days, or who vomited within 4 h after dosing on any of the PK days were excluded from Evaluable PK set.
An analysis of variance (ANOVA) was performed on the natural log (ln)-transformed Cmax and AUClast of encorafenib, LHY746, binimetinib, and AR00426032. The least squares means (LSM) geometric mean ratio (GMR) and associated 90% confidence interval (CI) for each PK parameter were calculated using the exponentiation of the difference between treatment LSM from the analyses on the ln-transformed parameters and expressed as a percentage of Day 21 relative to Day 14.

[2] = Day 21 (with modafinil) relative to Day 14 (without)
[3] = Day 21, with modafinil 400 mg QD, steady state, plasma, patients

Cn1cnc2c(F)c(Nc3ccc(Br)cc3F)c(C(=O)NOCCO)cc21 [Binimetinib, binimetinib]
Contribution of UGT1A1-mediated metabolism to metabolism (UGT1A1): up to 61%
AUClast GMR (geometric mean ratio) [1, 2]: 0.957
Cmax GMR (geometric mean ratio) [1, 2]: 1
Cmax GMR (geometric mean ratio) ([1]; Day 21 (with modafinil) relative to Day 14 (without), listed as binimetinib): 1.00
Cmax, Median (range) [1, 3]: 686 (424–923) ng/mL
Tmax, Median (range) [1, 3]: 1.00 (0.95–2.10) hr
Effect of steady-state modafinil on exposure/PK (in words) ([1]; Day 21 vs Day 14, modafinil 400 mg QD): similar; also recorded: no change
Time at which mean plasma concentrations typically reach peak levels, postdose ([1]; Days 14 and 21, steady state): 1 h
AUC(0-t) ([1]; plasma, oral, 400 mg, Day 21, with modafinil 400 mg QD, steady state, plasma, patients, read-out: AUClast, GM (CV%)): 2290 ng·h/mL
AUC(0-t) ([1]; plasma, oral, 400 mg, Day 21, with modafinil 400 mg QD, steady state, plasma, patients, read-out: AUClast, Median (range)): 2430 ng·h/mL
half-life ([1]; plasma, oral, 400 mg, Day 21, with modafinil 400 mg QD, steady state, plasma, patients, read-out: T1/2, GM (CV%) (converted)): 4.55 h
half-life ([1]; plasma, oral, 400 mg, Day 21, with modafinil 400 mg QD, steady state, plasma, patients, read-out: T1/2, Median (range) (converted)): 4.47 h
AUC(0-t) ([1]; plasma, oral, Day 14, without modafinil, steady state, plasma, patients, read-out: AUClast, GM (CV%)): 2400 ng·h/mL
AUC(0-t) ([1]; plasma, oral, Day 14, without modafinil, steady state, plasma, patients, read-out: AUClast, Median (range)): 2670 ng·h/mL
Cmax ([1]; plasma, oral, Day 14, without modafinil, steady state, plasma, patients, read-out: Cmax, Median (range)): 609 ng/mL
half-life ([1]; plasma, oral, Day 14, without modafinil, steady state, plasma, patients, read-out: T1/2, GM (CV%) (converted)): 4.62 h
half-life ([1]; plasma, oral, Day 14, without modafinil, steady state, plasma, patients, read-out: T1/2, Median (range) (converted)): 5.15 h
Cmax ([1]; plasma, po, Day 14, without modafinil, steady state, encorafenib 450 mg QD + binimetinib 45 mg BID oral, plasma, patients, read-out: Cmax, GM (CV%)): 660 ng/mL
Cmax ([1]; plasma, po, Day 21, with modafinil 400 mg QD Days 15-21, steady state, encorafenib 450 mg QD + binimetinib 45 mg BID oral, plasma, patients, read-out: Cmax, GM (CV%)): 663 ng/mL
